Earlier results, collected in the PKSmart pharmacokinetics tables (Seal et al. 2025).
*1 amine or outer side, *2 acyl side, *3 side chain or, on linkers, in order; H or OH if unused. Where a SMILES comes first, the peptide text is derived from it. Bridges are numbered along the chain shown (N, C = ends). [ ]: non-standard residue; d: D form. The star is where a group is joined. ξ: configuration not given here. pTerphenylCO(4''-OnC5H11) = CCCCCOc1ccc(-c2ccc(-c3ccc(C(=O)*)cc3)cc2)cc1; ξOrn(4R-OH,5R-OH) = O=C(C(C[C@@H](O)[C@@H](O)N[*:3])N[*:1])[*:2]; ξhTyr(3S-OH,4S-OH) = NC(C(=O)O)[C@H](O)[C@@H](O)c1ccc(O)cc1; X4 = C[C@H]1CN([*:1])C(C(=O)[*:2])[C@H]1O; ξPro(4R-OH) = O=C(O)C1C[C@@H](O)CN1; ξThr(3R) = C[C@@H](O)C(N)C(=O)O

Test: Lombardo, Berellini, Obach 2018, Drug Metab Dispos 46:1466, doi 10.1124/dmd.118.082966
Settings: human; for MRT / Vd / half-life / clearance: in vivo, iv; for fraction unbound: plasma

SMILES: C=CCN1CC[C@]23c4c5ccc(O)c4OC2C(=O)CC[C@@]3(O)[C@H]1C5 (some centres undefined)
- MRT: 1.2 h
- Vd: 1.7 L/kg
- half-life: 1.1 h
- fraction unbound: 0.54

SMILES: CCN1C[C@H]2CN(C)C[C@@H](C1)C2OC(=O)c1ccc(Cl)cc1 (some centres undefined)
- MRT: 8.8 h
- Vd: 9 L/kg
- clearance: 17 mL/min/kg
- half-life: 8.6 h

SMILES: O=c1ccc2ncc(=O)n3c2n1C[C@H]3CN1CCC(NCc2cc3c(cn2)OCCC3)CC1
- MRT: 4.86 h
- Vd: 2.7 L/kg
- clearance: 9.23 mL/min/kg
- half-life: 12.6 h

SMILES: c1ccc(C2(c3ccccc3)CC2C2=NCCN2)cc1 (centres undefined)
- MRT: 7.8 h
- Vd: 4.1 L/kg
- clearance: 8.6 mL/min/kg
- half-life: 7.3 h

SMILES: CCc1c2c(nc3ccc(OC(=O)CCC(=O)Oc4c(C)c(C)c5c(c4C)CC[C@@](C)(CCC[C@H](C)CCC[C@H](C)CCCC(C)C)O5)cc13)-c1cc3c(c(=O)n1C2)COC(=O)[C@]3(O)CC
- MRT: 3.34 h
- Vd: 0.15 L/kg
- clearance: 0.81 mL/min/kg
- half-life: 3.77 h

SMILES: Cc1ncc(CO)c(CO)c1O
- MRT: 1.38 h
- Vd: 0.66 L/kg
- clearance: 7.9 mL/min/kg
- half-life: 0.98 h

SMILES: Cc1nc2n(c(=O)c1CCN1CCC(c3noc4cc(F)ccc34)CC1)CCCC2O (centres undefined)
- clearance: 1.18 mL/min/kg
- half-life: 24.6 h
- fraction unbound: 0.24

SMILES: CC(c1nc(-c2ccc(C#N)cc2)cs1)[C@@](O)(Cn1cncn1)c1cc(F)ccc1F (some centres undefined)
- MRT: 106 h
- Vd: 5.37 L/kg
- clearance: 0.85 mL/min/kg
- half-life: 86.9 h
- fraction unbound: 0.01

SMILES: C[n+]1ccccc1C=NO
- MRT: 1.5 h
- Vd: 0.8 L/kg
- clearance: 9 mL/min/kg
- half-life: 1.4 h
- fraction unbound: 1

SMILES: CC(C(O)c1ccc(O)cc1)N1CCC(Cc2ccccc2)CC1 (centres undefined)
- MRT: 4.9 h
- Vd: 19 L/kg
- clearance: 64.6 mL/min/kg
- half-life: 4.32 h

SMILES: COc1ccnc(C[S+](O)c2nc3cc(-n4cccc4)ccc3[n-]2)c1C (centres undefined)
- MRT: 4.32 h
- Vd: 0.19 L/kg
- clearance: 0.73 mL/min/kg
- half-life: 3.59 h

SMILES: S=P(N1CC1)(N1CC1)N1CC1
- MRT: 4 h
- Vd: 1.6 L/kg
- clearance: 6.7 mL/min/kg
- half-life: 2.7 h

SMILES: Clc1cccc(Cl)c1NC1=NCCN1
- MRT: 14 h
- Vd: 3.3 L/kg
- clearance: 4 mL/min/kg
- half-life: 7.6 h
- fraction unbound: 0.56

SMILES: Nc1nc(=O)c2ncn(CCC(CO)CO)c2[nH]1
- MRT: 2.4 h
- Vd: 1.1 L/kg
- clearance: 8.4 mL/min/kg
- half-life: 2.1 h

SMILES: C[C@@H](O)C1C(=O)N2C(C(=O)O)=C(S[C@H]3CC(C(=O)N4CC[C@H](NC(=O)CNC(=N)N)C4)N(C)C3)[C@H](C)[C@H]12 (some centres undefined)
- MRT: 2 h
- Vd: 0.23 L/kg
- clearance: 1.9 mL/min/kg
- half-life: 1.7 h
- fraction unbound: 0.91

SMILES: CCCCCOc1ccc(-c2ccc(-c3ccc(C(=O)NC4C[C@@H](O)[C@@H](O)NC(=O)C5[C@@H](O)[C@@H](C)CN5C(=O)C([C@@H](C)O)NC(=O)C([C@H](O)[C@@H](O)c5ccc(O)cc5)NC(=O)C5C[C@@H](O)CN5C(=O)C([C@@H](C)O)NC4=O)cc3)cc2)cc1 (stereo partly drawn) ({pTerphenylCO(4''-OnC5H11)}-[ξOrn(4R-OH,5R-OH)][ξThr(3R)][ξPro(4R-OH)][ξhTyr(3S-OH,4S-OH)][ξThr(3R)][X4]; lactam 1-C)
- MRT: 45 h
- Vd: 0.57 L/kg
- clearance: 0.21 mL/min/kg
- half-life: 40 h

SMILES: CC/C=C\C/C=C\C/C=C\C/C=C\C/C=C\C/C=C\CCC(=O)OC(C(=O)O[C@H]1C[C@@]2(O)[C@@H](OC(=O)c3ccccc3)[C@@H]3[C@]4(OC(C)=O)CO[C@@H]4C[C@H](O)[C@@]3(C)C(=O)C(OC(C)=O)=C(C1C)C2(C)C)[C@@H](NC(=O)c1ccccc1)c1ccccc1 (some centres undefined)
- MRT: 45 h
- clearance: 0.025 mL/min/kg
- half-life: 60 h
- fraction unbound: 0.0038

SMILES: CN(C)C(=O)CCS[C@H](SCCC(=O)O)c1cccc(/C=C/c2ccc3ccc(Cl)cc3n2)c1
- MRT: 2.7 h
- Vd: 0.11 L/kg
- clearance: 0.68 mL/min/kg
- half-life: 2.3 h
- fraction unbound: 0.0004

SMILES: COc1cc(N)cn[n+]1-c1ccccc1
- MRT: 13 h
- Vd: 4 L/kg
- clearance: 5.1 mL/min/kg
- half-life: 14.1 h

SMILES: COc1cc2c(cc1OC)CN(CCc1ccc(NC(=O)c3cc(OC)c(OC)cc3NC(=O)c3cnc4ccccc4c3)cc1)CC2
- MRT: 38 h
- Vd: 6.4 L/kg
- clearance: 2.8 mL/min/kg
- half-life: 29 h

SMILES: CN1c2ccccc2[C@@H](NCCCCCCC(=O)O)c2ccc(Cl)cc2S1(=O)=O
- MRT: 1.9 h
- Vd: 0.3 L/kg
- clearance: 2.8 mL/min/kg
- half-life: 1.4 h

SMILES: C[C@@H](O[C@H]1OCCN(Cc2n[nH]c(=O)[nH]2)[C@H]1c1ccc(F)cc1)c1cc(C(F)(F)F)cc(C(F)(F)F)c1
- Vd: 0.94 L/kg
- half-life: 13 h

SMILES: CNCCCC12CCC(c3ccccc31)c1ccccc12
- MRT: 54 h
- Vd: 45 L/kg
- clearance: 14 mL/min/kg
- half-life: 51 h
- fraction unbound: 0.11

SMILES: CC(NCc1ccc(OCc2cccc(F)c2)cc1)C(N)=O (centres undefined)
- MRT: 31.2 h
- Vd: 2.19 L/kg
- clearance: 1.17 mL/min/kg
- half-life: 21.7 h

SMILES: CCc1cc2c(cc1N1CCC(N3CCOCC3)CC1)C(C)(C)c1[nH]c3cc(C#N)ccc3c1C2=O
- MRT: 13.8 h
- Vd: 6.35 L/kg
- clearance: 7.69 mL/min/kg
- half-life: 11.7 h
- fraction unbound: 0.003

SMILES: Cn1nnc(-c2ccc(-c3ccc(N4C[C@H](CO)OC4=O)cc3F)cn2)n1
- MRT: 12.6 h
- Vd: 0.91 L/kg
- clearance: 1.19 mL/min/kg
- half-life: 10.2 h
- fraction unbound: 0.11
